The molecules below were run against T1, estrogen receptor (Homo sapiens, UniProt P03372) (assay: Alkaline phosphatase (AP) assay in ECC-1 cells, agonist mode (no E2) and antagonist mode (500 pM E2)). Conditions: 3 days, AP activity normalized to 500 pM E2 alone, agonist mode without E2, antagonist mode with 500 pM E2.
T1 construct: endogenous in cells; host or cells: ECC-1 cells
T1 sequence (P03372 1-595): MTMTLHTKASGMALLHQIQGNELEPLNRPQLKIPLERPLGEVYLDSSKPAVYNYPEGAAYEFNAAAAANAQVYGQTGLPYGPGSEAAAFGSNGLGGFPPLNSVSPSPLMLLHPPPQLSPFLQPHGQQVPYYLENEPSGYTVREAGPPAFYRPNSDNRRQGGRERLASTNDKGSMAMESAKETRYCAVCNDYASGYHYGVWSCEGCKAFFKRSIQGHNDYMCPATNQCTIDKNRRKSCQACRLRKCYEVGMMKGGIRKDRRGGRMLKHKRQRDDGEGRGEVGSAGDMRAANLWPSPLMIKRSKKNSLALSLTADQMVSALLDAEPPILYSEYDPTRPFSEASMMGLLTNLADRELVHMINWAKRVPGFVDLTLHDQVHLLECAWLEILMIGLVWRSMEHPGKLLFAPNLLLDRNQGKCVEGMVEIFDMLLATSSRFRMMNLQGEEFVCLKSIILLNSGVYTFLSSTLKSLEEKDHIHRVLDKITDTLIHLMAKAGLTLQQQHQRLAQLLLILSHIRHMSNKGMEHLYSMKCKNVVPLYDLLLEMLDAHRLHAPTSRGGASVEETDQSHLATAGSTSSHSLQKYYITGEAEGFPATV
Type: cell-based
In short: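 ECC-1 cells in hormone-depleted medium treated 3 days with compound alone (agonist mode) or with 500 pM E2 (antagonist mode). Alkaline phosphatase read by p-nitrophenyl phosphate hydrolysis, 40 min at 42° C, A405. Activity normalized to 500 pM E2 alone.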
With C[C@@H]1Cc2c([nH]c3ccccc23)[C@@H](c2cnc(N[C@@H]3CN(CCCF)C[C@@H]3F)s2)N1CC(F)(F)CO [Example I-72, 2,2-difluoro-3-[(1S,3R)-1-[2-[[(3R,4S)-4-fluoro-1-(3-fluoropropyl)pyrrolidin-3-yl]amino]thiazol-5-yl]-3-methyl-1,3,4,9-tetrahydropyrido[3,4-b]indol-2-yl]propan-1-ol] the “Activity (estrogen receptor modulation, agonism and antagonism)” value (from here on “Activity”) was “++ (estrogen receptor antagonism having (i) between 10% and 80% increase in the E2-normalized signal in the AP assay (agonist mode) and (ii) between 10% and 80% reduction in the E2-normalized signal in the AP assay (antagonist mode))”. With CCCN1CCC(c2ccc([C@@H]3c4[nH]c5ccccc5c4C[C@@H](C)N3CC(C)(C)F)s2)CC1 [Example I-70, (1S,3R)-2-(2-fluoro-2-methyl-propyl)-3-methyl-1-[5-(1-propyl-4-piperidyl)-2-thienyl]-1,3,4,9-tetrahydropyrido[3,4-b]indole] the “Activity” value was “+ (estrogen receptor agonism having (i) at least 80% increase in the E2-normalized signal in the AP assay (agonist mode) and (ii) no more than 80% reduction in the E2-normalized signal in the AP assay (antagonist mode))”. In the case of CCCN1CC(Cc2cnc([C@@H]3c4[nH]c5ccccc5c4C[C@@H](C)N3CC(F)F)s2)C1 [Example I-32, 2-[(1S,3R)-2-(2,2-difluoroethyl)-3-methyl-1,3,4,9-tetrahydropyrido[3,4-b]indol-1-yl]-5-[(1-propylazetidin-3-yl)methyl]thiazole], the “Activity” value is reported as “++ (estrogen receptor antagonism having (i) between 10% and 80% increase in the E2-normalized signal in the AP assay (agonist mode) and (ii) between 10% and 80% reduction in the E2-normalized signal in the AP assay (antagonist mode))”. Cc1cc(CC2CN(CCCF)C2)sc1[C@@H]1c2[nH]c3ccccc3c2C[C@@H](C)N1CC(C)(C)F [Example I-6, 3-({5-[(1S,3R)-2-(2-fluoro-2-methylpropyl)-3-methyl-1H,2H,3H,4H,9H-pyrido[3,4-b]indol-1-yl]-4-methylthiophen-2-yl}methyl)-1-(3-fluoropropyl)azetidine] was tested, and the “Activity” value was “++ (estrogen receptor antagonism having (i) between 10% and 80% increase in the E2-normalized signal in the AP assay (agonist mode) and (ii) between 10% and 80% reduction in the E2-normalized signal in the AP assay (antagonist mode))”. With C[C@@H]1Cc2c([nH]c3ccccc23)[C@@H](c2cnc(CC3CN(CCCF)C3)s2)N1CC(F)F [Example I-29] the “Activity” value was “+++ (estrogen receptor antagonism (i) with pIC50 greater than 7.5 and at least a 10% reduction in the E2-normalized signal in the AP assay (antagonist mode); and no more than 10% increase in E2-normalized signal in the AP assay (agonist mode))”. For C[C@@H]1Cc2c([nH]c3ccccc23)[C@@H](c2ncc(CC3CN(CCCF)C3)s2)N1CC(F)(F)F [Example I-34, 5-[[1-(3-fluoropropyl)azetidin-3-yl]methyl]-2-[(1S,3R)-3-methyl-2-(2,2,2-trifluoroethyl)-1,3,4,9-tetrahydropyrido[3,4-b]indol-1-yl]thiazole], the “Activity” value was “++ (estrogen receptor antagonism having (i) between 10% and 80% increase in the E2-normalized signal in the AP assay (agonist mode) and (ii) between 10% and 80% reduction in the E2-normalized signal in the AP assay (antagonist mode))”. With C[C@@H]1Cc2c([nH]c3ccccc23)[C@@H](c2ncc(CC3CN(CCC(F)F)C3)s2)N1CC(F)(F)F [Example I-39, 5-[[1-(3,3-difluoropropyl)azetidin-3-yl]methyl]-2-[(1S,3R)-3-methyl-2-(2,2,2-trifluoroethyl)-1,3,4,9-tetrahydropyrido[3,4-b]indol-1-yl]thiazole] the “Activity” value was “++ (estrogen receptor antagonism having (i) between 10% and 80% increase in the E2-normalized signal in the AP assay (agonist mode) and (ii) between 10% and 80% reduction in the E2-normalized signal in the AP assay (antagonist mode))”. For C[C@@H]1Cc2c([nH]c3ccccc23)[C@@H](c2ncc(CC3CN(CCCF)C3)s2)N1CC(F)(F)CO [Example I-44, 2,2-difluoro-3-[(1S,3R)-1-[5-[[1-(3-fluoropropyl)azetidin-3-yl]methyl]thiazol-2-yl]-3-methyl-1,3,4,9-tetrahydropyrido[3,4-b]indol-2-yl]propan-1-ol], the “Activity” value was “++ (estrogen receptor antagonism having (i) between 10% and 80% increase in the E2-normalized signal in the AP assay (agonist mode) and (ii) between 10% and 80% reduction in the E2-normalized signal in the AP assay (antagonist mode))”. C[C@@H]1Cc2c([nH]c3ccccc23)[C@@H](c2ccc(CC3CN(CCC#N)C3)s2)N1CC(C)(C)F [Example I-56, 3-[3-[[5-[(1S,3R)-2-(2-fluoro-2-methyl-propyl)-3-methyl-1,3,4,9-tetrahydropyrido[3,4-b]indol-1-yl]-2-thienyl]methyl]azetidin-1-yl]propanenitrile] was tested, and the “Activity” value was “++ (estrogen receptor antagonism having (i) between 10% and 80% increase in the E2-normalized signal in the AP assay (agonist mode) and (ii) between 10% and 80% reduction in the E2-normalized signal in the AP assay (antagonist mode))”. For CCCN1CC(Cc2cnc([C@@H]3c4[nH]c5ccccc5c4C[C@@H](C)N3CC(C)(C)F)s2)C1 [Example I-3, 2-[(1S,3R)-2-(2-fluoro-2-methylpropyl)-3-methyl-1H,2H,3H,4H,9H-pyrido[3,4-b]indol-1-yl]-5-[(1-propylazetidin-3-yl)methyl]-1,3-thiazole], the “Activity” value was “+ (estrogen receptor agonism having (i) at least 80% increase in the E2-normalized signal in the AP assay (agonist mode) and (ii) no more than 80% reduction in the E2-normalized signal in the AP assay (antagonist mode))”. With C[C@@H]1Cc2c([nH]c3ccccc23)[C@@H](c2cnc(N[C@H]3CN(CCCF)C[C@H]3F)s2)N1CC(F)(F)CO [Example I-64, 2,2-difluoro-3-[(1S,3R)-1-[2-[[(3S,4R)-4-fluoro-1-(3-fluoropropyl)pyrrolidin-3-yl]amino]thiazol-5-yl]-3-methyl-1,3,4,9-tetrahydropyrido[3,4-b]indol-2-yl]propan-1-ol] the “Activity” value was “++ (estrogen receptor antagonism having (i) between 10% and 80% increase in the E2-normalized signal in the AP assay (agonist mode) and (ii) between 10% and 80% reduction in the E2-normalized signal in the AP assay (antagonist mode))”. For C[C@@H]1Cc2c([nH]c3ccccc23)[C@@H](c2ncc(CC3CN(CCC(F)F)C3)s2)N1CC(F)F [Example I-35, 2-[(1S,3R)-2-(2,2-difluoroethyl)-3-methyl-1,3,4,9-tetrahydropyrido[3,4-b]indol-1-yl]-5-[[1-(3,3-difluoropropyl)azetidin-3-yl]methyl]thiazole], the “Activity” value was “++ (estrogen receptor antagonism having (i) between 10% and 80% increase in the E2-normalized signal in the AP assay (agonist mode) and (ii) between 10% and 80% reduction in the E2-normalized signal in the AP assay (antagonist mode))”. With CCCN1CC[C@@H](Cc2ncc([C@@H]3c4[nH]c5ccccc5c4C[C@@H](C)N3CC(F)(F)CO)s2)C1 [Example I-46, 2,2-difluoro-3-((1S,3R)-3-methyl-1-(2-(((S)-1-propylpyrrolidin-3-yl)methyl)thiazol-5-yl)-1,3,4,9-tetrahydro-2H-pyrido[3,4-b]indol-2-yl)propan-1-ol] the “Activity” value was “++ (estrogen receptor antagonism having (i) between 10% and 80% increase in the E2-normalized signal in the AP assay (agonist mode) and (ii) between 10% and 80% reduction in the E2-normalized signal in the AP assay (antagonist mode))”. For C[C@@H]1Cc2c([nH]c3ccccc23)[C@@H](c2ccc(CCCN3CC(CF)C3)s2)N1CC(C)(C)F [Example I-21, 1-(3-{5-[(1S,3R)-2-(2-fluoro-2-methylpropyl)-3-methyl-1H,2H,3H,4H,9H-pyrido[3,4-b]indol-1-yl]thiophen-2-yl}propyl)-3-(fluoromethyl)azetidine], the “Activity” value was “+++ (estrogen receptor antagonism (i) with pIC50 greater than 7.5 and at least a 10% reduction in the E2-normalized signal in the AP assay (antagonist mode); and no more than 10% increase in E2-normalized signal in the AP assay (agonist mode))”. In the case of C[C@@H]1Cc2c([nH]c3ccccc23)[C@@H](c2cnc(C[C@H]3CCN(CCCF)C3)s2)N1CC(F)(F)CO [Example I-36, 2,2-difluoro-3-[(1S,3R)-1-[2-[[(3R)-1-(3-fluoropropyl)pyrrolidin-3-yl]methyl]thiazol-5-yl]-3-methyl-1,3,4,9-tetrahydropyrido[3,4-b]indol-2-yl]propan-1-ol], the “Activity” value is reported as “+ (estrogen receptor agonism having (i) at least 80% increase in the E2-normalized signal in the AP assay (agonist mode) and (ii) no more than 80% reduction in the E2-normalized signal in the AP assay (antagonist mode))”.

Source: patent US20260055103A1, “2,3,4,9-TETRAHYDRO-1H-PYRIDO[3,4-B]INDOLE DERIVATIVES AS ESTROGEN RECEPTOR MODULATORS FOR THE TREATMENT OF CANCER” (Olema Pharmaceuticals, Inc., priority 2022, published 2026)
